Residues, ends and D or L forms follow the SMILES beside them. *: point of attachment. Cbz = O=C(OCc1ccccc1)*; Boc = CC(C)(C)OC(=O)*; OBn = c1ccc(CO*)cc1
Compared with `CS(=O)(=O)c1cc(F)cc2c3c(n(Cc4ccc(Cl)cc4)c12)[C@@H](CC(=O)O)CC3`, `O=C(O)CCc1cc(C(c2cc(F)ccc2F)S(=O)(=O)c2ccc(C(F)(F)F)cc2)c(Cl)cn1` (stereo unspecified) is lower in melting point: 175 °C for the first, 166 to 167 °C for the second.

First: CC(C)(C)[Si](C)(C)O[C@H]1CCNC1=O
Second: CC(C)(C)NCP(=O)(O)O
The melting point of the first is lower: 48 to 49 °C for the first, 295 °C for the second.

First: COC(=O)C(=O)c1ccc(OCCOc2ccc(S(N)(=O)=O)cc2)cc1
Second: CS(=O)(=O)N(Cc1ccccc1)c1ccc(C(=O)CBr)cc1
The melting point of the first is higher: 136 to 137 °C for the first, 101 to 103 °C for the second.

First: CN1C(=O)CC2(CC1=O)c1ccccc1Oc1ccccc12
Second: CN1C(=O)CN(N=Cc2ccccc2)C(c2ccccc2)c2cc(Cl)ccc21 (stereo unspecified)
The melting point of the first is lower: 148 to 149 °C for the first, 157 to 158 °C for the second.

First: CC(=O)N1CC(CCN2CC=C(c3ccccc3)CC2)c2ccccc21 (stereo unspecified)
Second: CN1C(=O)[C@H](NC(=O)Nc2ccc3c(c2)CCC3)N=C(c2ccccc2)c2ccccc21
The melting point of the first is lower: 109 to 111 °C for the first, 156 to 158 °C for the second.

First: Cc1cn(-c2ccc(NC(=O)c3ccc(C)c(C#Cc4ccc(NC(C)C)nn4)c3)cc2C(F)(F)F)cn1
Second: O=C(Nc1ccc2[nH]ccc2c1)c1cc2cc(F)ccc2n1Cc1cccc(F)c1
The melting point of the first is lower: 141 to 143 °C for the first, 158 to 163 °C for the second.

First: CCCCCCCCCCC(O)COc1ccc(N2CCS(=O)(=O)CC2)cc1 (stereo unspecified)
Second: CCCCCCCCCCCC(=O)c1c[nH]c2ccccc12
The melting point of the first is lower: 84 °C for the first, 129 to 130 °C for the second.

Compared with `CNc1nc(Br)cc(S(=O)(=O)c2ccc(N)cc2)n1`, `CC(C)(C)OC(=O)CCS(=O)(=O)c1ccc(Br)cc1` is lower in melting point: over 250 °C for the first, 105 °C for the second.

Compared with `Cc1ccc(Oc2ccc(Cl)cn2)c(Oc2ccc(Cl)cn2)c1`, `CCOC(=O)c1cnc2ccc(C#N)cc2c1NCc1ccc(OC)c(Cl)c1` is higher in melting point: 87 to 90 °C for the first, 161 to 162 °C for the second.

First: COc1ccc2cc(-c3cc4c(cc3N)OCO4)ccc2c1
Second: COc1ccc(Cc2ccc3[nH]c4cnn(C)c4c(=O)c3c2)cc1
The melting point of the first is lower: 130 to 132 °C for the first, 248 to 249 °C for the second.

First: CN(C)Cc1c(-c2ccc(OC(F)F)c(OC3CC3)c2)[nH]c2cn[nH]c(=O)c12
Second: CC(C)n1nc(-c2c(OC3CCC3)nc(N)nc2-c2ccccc2)ccc1=O
The melting point of the first is lower: 154 to 157 °C for the first, 161 to 162 °C for the second.

First: N=C(NO)c1ccc(-c2ccc(-c3ccc(C(=N)NO)o3)cc2)cc1
Second: O=C(O)CCc1cnoc1-c1ccc(-c2ccccc2)cc1
The melting point of the first is higher: 229 to 230 °C for the first, 94 to 95 °C for the second.

First: CCC(C)(C)OC(=O)NC(C)(Cc1c[nH]c2ccccc12)C(=O)NCCCCc1ccccc1 (stereo unspecified)
Second: CCCCc1c(OCOC(=O)C(C)(C)C)n(-c2ccccc2)n(-c2ccccc2)c1=O
The melting point of the first is higher: 127 to 130 °C for the first, 83 to 85 °C for the second.

Compared with `Cc1cc2nc(NC(=O)NCCN3CCOCC3)sc2cc1OC(C)c1c(Cl)ccc(F)c1Cl` (stereo unspecified), `COc1ccc(N2CCOCC2)c2sc(C(=O)NCC(=O)c3csc4ccccc34)nc12` is lower in melting point: 270 to 276 °C for the first, 210 °C for the second.

Compared with `CC(C)CCC(=O)Nc1ccc2oc3c(c2c1)CCCC3`, `OCc1nn(-c2ccc(Cl)cc2)c2c1CCCC2` is lower in melting point: 146 °C for the first, 125 to 126 °C for the second.

Compared with `O=C1OCCN1CCC1=NCCN1`, `CCCCC(=O)Nc1cc(C(=O)N2CCOCC2)ccn1` is lower in melting point: 118 to 123 °C for the first, 110 to 112 °C for the second.

First: O=C(CBr)C1=NO[C@@H](c2ccccc2)C1
Second: CC(=O)NC(C)C1=NN(Cc2ccccc2)C(C)NC1=O (stereo unspecified)
The melting point of the first is lower: 31 to 33 °C for the first, 196 to 203 °C for the second.

First: O=C(O)c1cn(-c2ccc(F)cc2F)c2cc(Cl)c(F)cc2c1=O
Second: O=C(O)c1cccc2c1[nH]c1c(Cl)c(Cl)ccc12
The melting point of the first is lower: 90 to 92 °C for the first, 290 °C for the second.

Compared with `Cc1cc(C)nc(NC(=O)NS(=O)(=O)c2ccccc2C(=O)N(C)C)c1`, `CC(=O)c1c(N(C)C)c(-c2ccccc2)n(Cc2ccc(Cl)cc2)c1C` is lower in melting point: 166 to 168 °C for the first, 118 to 119 °C for the second.

Compared with `CCOc1cc2ncc(C#N)c(Nc3cccc(F)c3)c2cc1OCC`, `CCCC(=O)c1cnc2c(C)cccc2c1Nc1ccccc1Cl` is lower in melting point: 192 to 195 °C for the first, 130 to 131 °C for the second.

First: COC(=O)C1=C(C)NC(CF)=C(C(=O)OC)C1c1c(F)c(F)c(F)c(F)c1F (stereo unspecified)
Second: CCOC(=O)C1=C(COCCNC(=O)N2CCNC2=O)NC(C)=C(C(=O)OC)C1c1ccccc1Cl (stereo unspecified)
The melting point of the first is higher: 148 to 150 °C for the first, 145 °C for the second.

First: Cc1c(-c2cccnc2)n(CCCCc2nnn[nH]2)c2ccccc12
Second: CCOC(=O)Cn1c(-c2ccccn2)nc2cccnc21
The melting point of the first is higher: 177 to 179 °C for the first, 109 to 111 °C for the second.

Compared with `Nc1ccc([N+](=O)[O-])cc1CO`, `CCCc1nc(NC(=N)N)sc1-c1cccc([N+](=O)[O-])c1` is lower in melting point: 141 to 142 °C for the first, 137 to 139 °C for the second.

Compared with `CNC(=O)Nc1ccc2[nH]cc(CCN)c2c1`, `CCOC(=O)c1cc(Cl)c2cccc(OC)c2n1` is lower in melting point: 188 to 190 °C for the first, 131 to 132 °C for the second.

Compared with `N#Cc1c(N)ncc2c1-c1ccccc1C(c1ccc(Cl)cc1Cl)C2` (stereo unspecified), `Cc1nc(N2CCOCC2)c2n1-c1ccc(Cl)cc1C(c1ccccc1F)=NC2` is lower in melting point: 282 to 284 °C for the first, 172 to 174 °C for the second.

Compared with `COc1ccc(-c2[nH]nc3c2C(=O)c2c(NC(=O)CN4CCC(N)CC4)cccc2-3)cc1`, `COC(=O)Nc1ccc(CC(=O)Nc2cccc3c2C(=O)c2c-3n[nH]c2-c2ccc(OC)cc2)cc1` is lower in melting point: over 300 °C for the first, 257 °C for the second.

Compared with `CC(=O)OCC1c2c(c3ccccc3c3ccccc23)-c2c1c1ccccc1c1ccccc21`, `Cc1cccc(Cl)c1OC1CN(C(c2ccccc2)c2ccccc2)C1` is lower in melting point: 209 to 210 °C for the first, 92 to 93 °C for the second.

First: Nc1cc(F)c(F)cc1S(N)(=O)=O
Second: CCC1c2ccc(F)n2-c2ccc(F)cc2N1S(=O)(=O)c1ccc(O)cc1 (stereo unspecified)
The melting point of the first is lower: 137 to 142 °C for the first, 169 to 171 °C for the second.

First: CCOC(=O)c1nn(-c2ccccc2)c2c1CSc1ccccc1-2
Second: O=C(CN1C(=O)c2ccccc2C1=O)Nc1ccccc1Cl
The melting point of the first is lower: 139 to 141 °C for the first, 250 °C for the second.

First: CCn1cc(C(=O)NCc2ccc(Cl)cc2)c(=O)c2cc(CN(C)C[C@@H](O)c3ccccc3)sc21
Second: COc1ccc(Cc2ccc(Sc3ccccc3)s2)cc1
The melting point of the first is higher: 100 to 102 °C for the first, 92 to 93 °C for the second.

First: Nc1nc2c(ncn2/C=C2/CC2(CO)CO)c(=O)[nH]1
Second: C=CC(=O)OCCOC(=O)Cc1cc(O)n2ncnc2n1
The melting point of the first is higher: over 300 °C for the first, 108 to 109 °C for the second.

First: CCCC/C(=C\C=C\C(=O)O)c1cccc(OC)c1
Second: CCCCc1c(CO)ccc2c(OC)cccc12
The melting point of the first is lower: 77.5 to 78.5 °C for the first, 100 to 102 °C for the second.

First: COC(=O)CCNC(=O)c1ccc2c(c1)nc(-c1ccc(C#N)cc1)n2CCC(c1ccccc1)c1ccccc1
Second: N#Cc1ccc(CC(NC(=O)OCc2ccccc2)C(=O)Nc2cccc(C(=O)NCCC(=O)OCc3ccccc3)c2)cc1 (racemic)
The melting point of the first is higher: 157 to 159 °C for the first, 145 to 146 °C for the second.

Compared with `Cc1ccc2c(-c3cnc4[nH]cc(C(=O)N[C@H](C)C(=O)N5CC(C#N)C5)c4n3)nn(C)c2n1`, `CCC(COC)n1cnc2c(Nc3ccc(C(F)(F)F)cc3Br)nc(C)nc21` (stereo unspecified) is lower in melting point: 275 to 285 °C for the first, 123 to 124 °C for the second.

First: CC(=O)OCC(=O)Nc1cccc(NC(=O)COC(C)=O)c1C#N
Second: O=C(N[C@H]1CN(C(=O)NS(=O)(=O)N2CCN(NC(=O)OCc3ccccc3)C2=O)C1=O)OCc1ccccc1
The melting point of the first is higher: 151 to 153 °C for the first, 75.7 to 116 °C for the second.

Compared with `COc1ccnc(CCc2nc3cc(-c4ccc(S(=O)(=O)N(C)C)cc4)cnc3[nH]2)c1`, `COc1cccc(Oc2c(NS(=O)(=O)c3ccc(C(C)(C)C)cc3)ncnc2OCCOc2ncc(C(C)O)cn2)c1` (stereo unspecified) is lower in melting point: 217 to 218 °C for the first, 133 to 135 °C for the second.

Compared with `CSCCC(NC(=O)OC(C)(C)C)C(=O)NC(C)C(=O)NC(C(=O)NC(CCCCNC(=O)OCc1ccccc1)C(=O)OCc1ccccc1)C(C)C` (stereo unspecified) (Boc-MAVK(Cbz)-OBn; configuration not given here), `CC(C)(C)OC(=O)[C@@H](CCCOS(=O)(=O)c1ccc2ccccc2c1)C[C@H](NC(c1ccccc1)(c1ccccc1)c1ccccc1)C(=O)OC(C)(C)C` is lower in melting point: 169 to 171 °C for the first, 119 °C for the second.

First: CCCOc1cccc(-c2nc(=O)c3ccccc3s2)n1
Second: N#CCCn1nc(-c2ccc(OCc3ccccc3)cc2)sc1=O
The melting point of the first is higher: 138 to 140 °C for the first, 135 °C for the second.

First: CCCn1nc2c(O)nc3ccccc3c2c1CC(C)(C)O
Second: Cc1cccc(C)c1NC(=O)CCCSc1cc(C(C)(C)C)c(O)c(C(C)(C)C)c1
The melting point of the first is higher: 294 to 296 °C for the first, 140 °C for the second.

Compared with `NC(=O)c1c(Cl)c(-c2ccccc2)n2c1CN(S(=O)(=O)c1cccc(C(F)(F)F)c1)CC2`, `COCCOc1cc(/C=C/C(=O)NS(=O)(=O)CCC(C)C)n(Cc2ccc(C(F)(F)F)cc2Cl)n1` is lower in melting point: 158 to 159 °C for the first, 114 to 116 °C for the second.

First: Cc1cc2c(cc1C)-n1ccnc1C=C(c1ccc(-n3c(C)nc4cnccc43)cc1)N2
Second: COc1cc2c(cc1-c1cccnc1)-c1c(-c3cccs3)c3c(n1CC2)C(=O)N(C(C)C)CCN(C(=O)C(C)C)C3
The melting point of the first is higher: 193 to 195 °C for the first, 178 to 183 °C for the second.

First: CC1(O)CC(=O)OC(C=Cc2ccc(OCc3ccccc3)cc2)C1 (stereo unspecified)
Second: Brc1ccc(OCc2ccc3ccccc3c2)cc1
The melting point of the first is higher: 155 to 156 °C for the first, 104 to 106 °C for the second.

First: CCCCCCCCCCCCCCCCCCNS(=O)(=O)c1cccc(C(F)(F)F)c1
Second: CC1(C)NC(=O)N(c2ccc(I)c(C(F)(F)F)c2)C1=O
The melting point of the first is lower: 83 to 85 °C for the first, 164 to 165 °C for the second.

Compared with `O=C(O)CCC/C=C\CN1C(=O)c2ccccc2C1=O`, `CCC1(c2ccncc2)CCC(=O)NC1=O` (stereo unspecified) is higher in melting point: 86 to 88 °C for the first, 134 to 136 °C for the second.

`O=C(Nc1ccc(C(CC2CCCC2)C(=O)O)cc1)c1cccnc1` (stereo unspecified) and `CN1C(=S)NN2CCCC21c1ccc(Cl)cc1` (stereo unspecified) cannot be ordered by melting point: 160 to 163 °C for the first, 159 to 161 °C for the second.

Compared with `COc1cc(P(c2ccccc2)c2ccccc2)c(Br)c(OC)n1`, `Cc1cc(C(=O)CC(O)(c2cc(Cl)cc(Cl)c2)C(F)(F)F)ccc1Br` (stereo unspecified) is lower in melting point: 150 to 151 °C for the first, 141 to 142 °C for the second.

First: Cc1ccn(NS(=O)n2ccnc2)c(=N)c1 (stereo unspecified)
Second: O=C1N(Cc2nsc(Cl)n2)c2cccc(Cl)c2C12COc1cc3c(cc12)OCO3 (stereo unspecified)
The melting point of the first is higher: 176 to 177 °C for the first, 174 to 176 °C for the second.

Compared with `CCN1CCN(C2c3c(C)c(N4CCN(c5ccc(OC)cc5)CC4)c(C)c(C)c3OC2(C)C)CC1` (stereo unspecified), `C=C1N(CCCC)C(=O)OC12CCN(CCC=C(c1ccc(Cl)cc1)c1ccc(Cl)cc1)CC2` is higher in melting point: 98 to 100 °C for the first, 110 to 111 °C for the second.
